# Reference: publication PMC3532055 (Journal of medicinal chemistry, 2012)
# How the values were obtained:
# α7-nAChRs [1] = target: T1, α7-nAChRs (Rattus norvegicus, UniProt Q05941); assay: Binding test at α7-nAChRs
# α7-nAChRs [2] = target: T1, α7-nAChRs; assay: Binding test at α7*-nAChRs; conditions: endogenous receptors prepared from rat forebrain
# BALB/cJ male mice = assay: Mouse forced swim test; conditions: vs vehicle
# α2β2 = α2β2 (Rattus norvegicus, UniProt P12389+P12390); assay: [3H]epibatidine competition binding, rat α2β2 nAChR; conditions: read-out: Ki α2β2, ± SEM
# human α7-nAChRs = conditions: read-out: Ki human α7-nAChRs; cited from earlier work
# [3] = 5, 10, and 30 mg/kg ip, 30 min before 6 min trial
smiles,measurement,setting,value
"OCCc1cc(-c2cncc(OC[C@@H]3CCN3)c2)on1 [Compound 13, 2-[5-[5-((S)Azetidin-2-ylmethoxy)-3-pyridinyl]-3-isoxazolyl]ethanol]",activity at α7-nAChRs,α7-nAChRs [1],no activity
same,activity at α7*-nAChRs,α7-nAChRs [2],no activity
"FCCCc1cc(-c2cncc(OC[C@@H]3CCN3)c2)on1 [Compound 26, 3-(2(S)-Azetidinylmethoxy)-5-[3-(3-fluoropropyl)-5-isoxazolyl]pyridine]",immobility in the mouse forced swim test,BALB/cJ male mice; [3],reduced immobility
"c1ncc(-c2cc(CCN3CCOCC3)no2)cc1OC[C@@H]1CCN1 [Compound 27, 4-[2-[5-[5-(2(S)-Azetidinylmethoxy)-3-pyridinyl]-3-isoxazolyl]ethyl]morpholine]",Ki,α2β2,12.3 ± 2.1 nM
"c1ncc(-c2cc(CCN3CCOCC3)no2)cc1OC[C@@H]1CCCN1 [Compound 28, 4-[2-[5-[5-(2(S)-Pyrrolidinylmethoxy)-3-pyridinyl]-3-isoxazolyl]ethyl]morpholine]",Ki,α2β2,74 ± 13 nM
"c1cncc(OC[C@@H]2CCN2)c1 [Compound A-85380, 3-(2(S)-azetidinylmethoxy) pyridine]",Ki,human α7-nAChRs,148 nM
"FC(F)CCc1cc(-c2cncc(OC[C@@H]3CCN3)c2)on1 [Compound 25, 3-(2(S)-Azetidinylmethoxy)-5-[3-(3,3-difluoropropyl)-5-isoxazolyl]pyridine]",activity at α7-nAChRs,α7-nAChRs [1],no activity
same,activity at α7*-nAChRs,α7-nAChRs [2],no activity
same,immobility in the mouse forced swim test,BALB/cJ male mice; [3],reduced immobility
"CN[C@H]1CC[C@@H](c2ccc(Cl)c(Cl)c2)c2ccccc21 [sertraline, reference compound]",immobility in the mouse forced swim test,"BALB/cJ male mice; 20 mg/kg ip, positive control",expected decrease in immobility
"CCc1cc(-c2cncc(OC[C@@H]3CCN3)c2)on1 [Compound 38, 3-(2(S)-Azetidinylmethoxy)-5-(3-ethyl-5-isoxazolyl)pyridine]",activity at α7-nAChRs,α7-nAChRs [1],no activity
same,activity at α7*-nAChRs,α7-nAChRs [2],no activity
same,immobility in the mouse forced swim test,"BALB/cJ male mice; 1, 3, 5, 10, and 30 mg/kg ip, 30 min before 6 min trial",reduced immobility
